{"source": "patent US20230085307A1", "about": "“PYRIDAZINONE COMPOUND AND HERBICIDE” (NISSAN CHEMICAL CORPORATION, priority 2019, published 2023)", "key": {"barnyard grass [1]": {"test_system": "barnyard grass", "experiment": "Test Example 3: herbicidal effect by foliage application, Wagner pot (Table 18, symbol H)", "format": "in vivo, barnyard grass (Echinochloa crus-galli)", "settings": "320 g/ha", "procedure,_shortened": "(§1)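 Plants were sown in alluvial soil held under 0.1–0.5 cm standing water and grown 14 days in a greenhouse at 25–30 °C. An emulsifiable formulation, water-diluted to the set dose, was then sprayed onto the foliage, and effects were scored three weeks later using previously defined criteria.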"}, "Chinese sprangletop": {"test_system": "Chinese sprangletop", "experiment": "Test Example 3: herbicidal effect by foliage application, Wagner pot (Table 18, symbol D)", "format": "in vivo, chinese sprangletop (Leptochloa chinensis)", "settings": "320 g/ha", "procedure,_shortened": "as §1"}, "rice flat sedge": {"test_system": "rice flat sedge", "experiment": "Test Example 3: herbicidal effect by foliage application, Wagner pot (Table 18, symbol E)", "format": "in vivo, rice flat sedge (Cyperus iria)", "settings": "320 g/ha", "procedure,_shortened": "as §1"}, "southern crabgrass [2]": {"test_system": "southern crabgrass", "experiment": "Test Example 4: herbicidal effect by soil treatment (Table 19, symbol F)", "format": "in vivo, southern crabgrass (Digitaria ciliaris)", "settings": "AAH 320 g/ha", "description": "(§2) [Test Example 4] Herbicidal Effect Test by Soil Treatment\n(§3) Sterilized diluvial soil was placed in a plastic box having a length of 21 cm, a width of 13 cm, and a depth of 7 cm. The seeds of each of southern crabgrass, green foxtail, barnyard grass, wild oat, blackgrass, Italian ryegrass, windgrass, velvetleaf, redroot pigweed, lambsquarters, chickweed, false cleavers, persian speedwell, corn, soybean, rice, wheat, beet, and rapeseed were sowed in a spot-like manner and covered with the soil having a thickness of about 1.5 cm. Subsequently, the emulsion agent of the compound of the present invention prepared according to Formulation Example 2 was diluted with water so as to achieve a predetermined herbicide amount, and the diluted emulsion agent was uniformly applied to the surface of the soil with a small-sized spray. The plastic box was placed in a greenhouse at 25° C. to 30° C. for growth of the plants. Three weeks after the herbicide application, the effect of the herbicide on each plant was evaluated according to the criteria of Test Example 1."}, "green foxtail [3]": {"test_system": "green foxtail", "experiment": "Test Example 4: herbicidal effect by soil treatment (Table 19, symbol G)", "format": "in vivo, green foxtail (Setaria viridis)", "settings": "AAH 320 g/ha", "procedure,_shortened": "(§4)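 Herbicidal effect was rated 3 weeks after treatment, using the scoring criteria of an earlier test. The compound, formulated as an emulsion and diluted in water to a set herbicide amount, had been sprayed uniformly on soil over freshly sown seeds. Growth took place in a greenhouse at 25° C. to 30° C.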"}, "barnyard grass [4]": {"test_system": "barnyard grass", "experiment": "Test Example 4: herbicidal effect by soil treatment (Table 19, symbol H)", "format": "in vivo, barnyard grass (Echinochloa crus-galli)", "settings": "AAH 320 g/ha", "description": "as §2, §3"}, "wild oat [5]": {"test_system": "wild oat", "experiment": "Test Example 4: herbicidal effect by soil treatment (Table 19, symbol I)", "format": "in vivo, wild oat (Avena fatua)", "settings": "AAH 320 g/ha", "description": "as §2, §3"}, "blackgrass [6]": {"test_system": "blackgrass", "experiment": "Test Example 4: herbicidal effect by soil treatment (Table 19, symbol J)", "format": "in vivo, blackgrass (Alopecurus myosuroides)", "settings": "AAH 320 g/ha", "description": "as §2, §3"}, "Italian ryegrass [7]": {"test_system": "Italian ryegrass", "experiment": "Test Example 4: herbicidal effect by soil treatment (Table 19, symbol K)", "format": "in vivo, Italian ryegrass (Lolium multiflorum)", "settings": "AAH 320 g/ha", "description": "as §2, §3"}, "windgrass [8]": {"test_system": "windgrass", "experiment": "Test Example 4: herbicidal effect by soil treatment (Table 19, symbol L)", "format": "in vivo, windgrass (Apera spica-venti)", "settings": "AAH 320 g/ha", "description": "as §2, §3"}, "velvetleaf [9]": {"test_system": "velvetleaf", "experiment": "Test Example 4: herbicidal effect by soil treatment (Table 19, symbol M)", "format": "in vivo, velvetleaf (Abutilon theophrasti)", "settings": "AAH 320 g/ha", "description": "as §2, §3"}, "redroot pigweed": {"test_system": "redroot pigweed", "experiment": "Test Example 4: herbicidal effect by soil treatment (Table 19, symbol N)", "format": "in vivo, redroot pigweed (Amaranthus retroflexus)", "settings": "AAH 320 g/ha", "procedure,_shortened": "as §4"}, "lambsquarters [10]": {"test_system": "lambsquarters", "experiment": "Test Example 4: herbicidal effect by soil treatment (Table 19, symbol O)", "format": "in vivo, lambsquarters (Chenopodium album)", "settings": "AAH 320 g/ha", "procedure,_shortened": "as §4"}, "chickweed": {"test_system": "chickweed", "experiment": "Test Example 4: herbicidal effect by soil treatment (Table 19, symbol P)", "format": "in vivo, common chickweed (Stellaria media)", "settings": "AAH 320 g/ha", "description": "as §2, §3"}, "southern crabgrass [11]": {"test_system": "southern crabgrass", "experiment": "Test Example 5: herbicidal effect by foliage application, plastic box (Table 20, symbol F)", "format": "in vivo, southern crabgrass (Digitaria ciliaris)", "settings": "foliage application, 320 g/ha, 3 weeks after application", "procedure,_shortened": "(§5)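 Foliar spray test: emulsion formulation diluted in water to a set application rate, sprayed onto 14-day-old plants raised in diluvial soil at 25° C to 30° C under glass. Both herbicidal effect and crop effect rated visually three weeks later.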"}, "green foxtail [12]": {"test_system": "green foxtail", "experiment": "Test Example 5: herbicidal effect by foliage application, plastic box (Table 20, symbol G)", "format": "in vivo, green foxtail (Setaria viridis)", "settings": "foliage application, 320 g/ha, 3 weeks after application", "procedure,_shortened": "as §5"}, "barnyard grass [13]": {"test_system": "barnyard grass", "experiment": "Test Example 5: herbicidal effect by foliage application, plastic box (Table 20, symbol H)", "format": "in vivo, barnyard grass (Echinochloa crus-galli)", "settings": "foliage application, 320 g/ha, 3 weeks after application", "procedure,_shortened": "as §5"}, "wild oat [14]": {"test_system": "wild oat", "experiment": "Test Example 5: herbicidal effect by foliage application, plastic box (Table 20, symbol I)", "format": "in vivo, wild oat (Avena fatua)", "settings": "foliage application, 320 g/ha, 3 weeks after application", "procedure,_shortened": "as §5"}, "blackgrass [15]": {"test_system": "blackgrass", "experiment": "Test Example 5: herbicidal effect by foliage application, plastic box (Table 20, symbol J)", "format": "in vivo, blackgrass (Alopecurus myosuroides)", "settings": "foliage application, 320 g/ha, 3 weeks after application", "procedure,_shortened": "as §5"}, "Italian ryegrass [16]": {"test_system": "Italian ryegrass", "experiment": "Test Example 5: herbicidal effect by foliage application, plastic box (Table 20, symbol K)", "format": "in vivo, Italian ryegrass (Lolium multiflorum)", "settings": "foliage application, 320 g/ha, 3 weeks after application", "procedure,_shortened": "as §5"}, "windgrass [17]": {"test_system": "windgrass", "experiment": "Test Example 5: herbicidal effect by foliage application, plastic box (Table 20, symbol L)", "format": "in vivo, windgrass (Apera spica-venti)", "settings": "foliage application, 320 g/ha, 3 weeks after application", "procedure,_shortened": "as §5"}, "velvetleaf [18]": {"test_system": "velvetleaf", "experiment": "Test Example 5: herbicidal effect by foliage application, plastic box (Table 20, symbol M)", "format": "in vivo, velvetleaf (Abutilon theophrasti)", "settings": "foliage application, 320 g/ha, 3 weeks after application", "procedure,_shortened": "as §5"}, "lambsquarters [19]": {"test_system": "lambsquarters", "experiment": "Test Example 5: herbicidal effect by foliage application, plastic box (Table 20, symbol O)", "format": "in vivo, lambsquarters (Chenopodium album)", "settings": "foliage application, 320 g/ha, 3 weeks after application", "procedure,_shortened": "as §5"}, "persian speedwell": {"test_system": "persian speedwell", "experiment": "Test Example 5: herbicidal effect by foliage application, plastic box (Table 20, symbol R)", "format": "in vivo, Persian speedwell (Veronica persica)", "settings": "foliage application, 320 g/ha, 3 weeks after application", "procedure,_shortened": "as §5"}}}
{"smiles": "Cc1nn(C)c(=O)c(-c2c(-c3ccc(CSC(C)C)cc3)sc3ccccc23)c1O", "note": "[1-243]", "values": [{"measurement": "herbicidal effect on H (barnyard grass), rating 0-5", "setting": "barnyard grass [1]", "value": "5 (Herbicidal rate of 90% or more (almost completely withered))"}, {"measurement": "herbicidal effect on D (Chinese sprangletop), rating 0-5", "setting": "Chinese sprangletop", "value": "4 (Herbicidal rate of 70% or more and less than 90%)"}, {"measurement": "herbicidal effect on E (rice flat sedge), rating 0-5", "setting": "rice flat sedge", "value": "4 (Herbicidal rate of 70% or more and less than 90%)"}, {"measurement": "F: southern crabgrass, herbicidal effect rating", "setting": "southern crabgrass [2]", "value": "0 (Herbicidal rate of 5% or less (almost no effect))"}, {"measurement": "G: green foxtail, herbicidal effect rating", "setting": "green foxtail [3]", "value": "0 (Herbicidal rate of 5% or less (almost no effect))"}, {"measurement": "H: barnyard grass, herbicidal effect rating", "setting": "barnyard grass [4]", "value": "0 (Herbicidal rate of 5% or less (almost no effect))"}, {"measurement": "I: wild oat, herbicidal effect rating", "setting": "wild oat [5]", "value": "0 (Herbicidal rate of 5% or less (almost no effect))"}, {"measurement": "J: blackgrass, herbicidal effect rating", "setting": "blackgrass [6]", "value": "0 (Herbicidal rate of 5% or less (almost no effect))"}, {"measurement": "K: Italian ryegrass, herbicidal effect rating", "setting": "Italian ryegrass [7]", "value": "0 (Herbicidal rate of 5% or less (almost no effect))"}, {"measurement": "L: windgrass, herbicidal effect rating", "setting": "windgrass [8]", "value": "0 (Herbicidal rate of 5% or less (almost no effect))"}, {"measurement": "M: velvetleaf, herbicidal effect rating", "setting": "velvetleaf [9]", "value": "1 (Herbicidal rate of 5% or more and less than 20%)"}, {"measurement": "N: redroot pigweed, herbicidal effect rating", "setting": "redroot pigweed", "value": "4 (Herbicidal rate of 70% or more and less than 90%)"}, {"measurement": "O: lambsquarters, herbicidal effect rating", "setting": "lambsquarters [10]", "value": "3 (Herbicidal rate of 40% or more and less than 70%)"}, {"measurement": "P: chickweed, herbicidal effect rating", "setting": "chickweed", "value": "0 (Herbicidal rate of 5% or less (almost no effect))"}, {"measurement": "effect on southern crabgrass (F)", "setting": "southern crabgrass [11]", "value": "3 (Herbicidal rate of 40% or more and less than 70%)"}, {"measurement": "effect on green foxtail (G)", "setting": "green foxtail [12]", "value": "4 (Herbicidal rate of 70% or more and less than 90%)"}, {"measurement": "effect on barnyard grass (H)", "setting": "barnyard grass [13]", "value": "4 (Herbicidal rate of 70% or more and less than 90%)"}, {"measurement": "effect on wild oat (I)", "setting": "wild oat [14]", "value": "2 (Herbicidal rate of 20% or more and less than 40%)"}, {"measurement": "effect on blackgrass (J)", "setting": "blackgrass [15]", "value": "2 (Herbicidal rate of 20% or more and less than 40%)"}, {"measurement": "effect on Italian ryegrass (K)", "setting": "Italian ryegrass [16]", "value": "3 (Herbicidal rate of 40% or more and less than 70%)"}, {"measurement": "effect on windgrass (L)", "setting": "windgrass [17]", "value": "0 (Herbicidal rate of 5% or less (almost no effect))"}, {"measurement": "effect on velvetleaf (M)", "setting": "velvetleaf [18]", "value": "5 (Herbicidal rate of 90% or more (almost completely withered))"}, {"measurement": "effect on lambsquarters (O)", "setting": "lambsquarters [19]", "value": "4 (Herbicidal rate of 70% or more and less than 90%)"}, {"measurement": "effect on persian speedwell (R)", "setting": "persian speedwell", "value": "5 (Herbicidal rate of 90% or more (almost completely withered))"}]}
